Data on 1 compound can be found in patent US7344829B2, “Methods for detecting the efficacy of anticancer treatments” (Board of Regents, the University of Texas System, priority 2000, dated 2008).

Like-named read-outs stand apart in the source and are kept apart here.

By IC50 is commonly meant the concentration needed to halve the response being measured. Low readings indicate inhibition by little substance, high ones a need for much substance.

For data set [1] the following is noted: mice, cited from earlier work.
A further data set has as its target T1, EGF-R (Homo sapiens, UniProt P00533).
T1 construct: endogenous in cells; host or cells: L3.6pl human pancreatic cancer cells
Briefly: Western blot analysis of EGF-R autophosphorylation in L3.6pl cells. The class given is cell-based. Conditions: 60 min pretreatment, 0.01–0.5 μM, then EGF. The protocol: Western Blot Analysis of EGF-R Autophosphorylation following Treatment with PKI166. […] without 40 ng/ml rhEGF for 10 min, washed, and scraped into PBS containing 5 mM EDTA and 1 mM Na Orthovanadate, and centrifuged, and the pellet resuspended in lysis buffer (20 mM Tris-HCl, pH 8.0, 137 mM NaCl, 10% glycerol, 2 mM EDTA, 1 mM phenylmethylsulfonyl fluoride, 20 μM leupeptin, and 0.15 U/ml aprotinin) sonicated, and centrifuged to recover […] protein. Immunoprecipitation was performed using Mab anti-EGF-R (clone EGF-RI) as described previously (Perrotte et al. 1999; Parker et al. 1998). Immunoprecipitates were analyzed on 7.5% NaDodSO4-PAGE and transferred onto 0.45-μm nitrocellulose membranes. The filters were blocked with 3% bovine serum albumin in TDS (20 mM Tris-HCl, pH 7.5, 150 mM NaCl), probed with either polyclonal sheep anti-human EGF-R (1:1000) or monoclonal anti-phosphotyrosine (Mab 4G10) (1:2000) in TTBS (0.1% Tween 20 in TBS), and incubated with horseradish peroxidase-conjugated donkey anti-sheep IgG (1:2000) (Sigma Immunochemicals, St. Louis, Mo.) or sheep anti-mouse IgG (1:2000), respectively, in TTBS. Protein bands were visualized by ECL detection system. For an additional experiment, serum-starved L3.6pl cells were treated with gemcitabine (10 nM) with or without PKI166 (0.05, 0.5 μM) for 1 h, and then incubated with or without rhEGF (40 ng/ml) for 10 min. […]

For a further data set, the target named is T2, KDR (Homo sapiens, UniProt P35968).
T2 construct: GST-fused kinase domains of Kdr, Flt-1, Flk, Tek, c-Met, and c-Kit were expressed in baculovirus; GST; made in house
T2 sequence (P35968 834-1162 limits assumed): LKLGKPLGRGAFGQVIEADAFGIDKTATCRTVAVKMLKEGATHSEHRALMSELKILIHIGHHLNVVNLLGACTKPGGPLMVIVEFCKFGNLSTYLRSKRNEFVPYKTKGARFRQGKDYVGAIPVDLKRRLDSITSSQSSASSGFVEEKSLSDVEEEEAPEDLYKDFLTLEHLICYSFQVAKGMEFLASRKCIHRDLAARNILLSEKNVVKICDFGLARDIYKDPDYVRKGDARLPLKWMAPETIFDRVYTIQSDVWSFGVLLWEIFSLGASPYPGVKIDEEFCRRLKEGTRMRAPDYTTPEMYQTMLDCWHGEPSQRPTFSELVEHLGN
The data set can be described thus: GST-fused kinase domain assay, KDR. The class given is biochemical. The protocol:
GST-fused kinase domains of Kdr, Flt-1, Flk, Tek, c-Met, and c-Kit were expressed in baculovirus and purified over glutathione-Sepharose. Kinase inhibition was measured by detecting the decrease in phosphorylation of poly(Glu,Tyr 4:1) essentially as previously described for EGF-R. Each kinase was incubated under optimized buffer conditions in 20 mM Tris-HCl, pH 7.5, 1–3 mM MnCl2, 3–10 mM MgCl2, 10 μM Na3VO4, 1 mM DTT, 0.2 μCi/[γ-^33P]ATP, 1–8 μM ATP, 3–8 μg/ml poly(Glu,Tyr 4:1), 1% DMSO in a total volume of 30 μl in the presence or absence of PKI166 for 10 min at ambient temperature. Reactions were terminated by adding 10 μl of 250 mM EDTA, and the reaction mixture was transferred onto an Immobilon-PVDG membrane (Millipore, Bedford, Mass.). Following a washing (0.5% H3PO4), a soaking in EtOH, and drying, filters were counted in a liquid scintillation counter. IC50 values for PKI166 were calculated by linear regression analysis of the percentage inhibition. Inhibition of Cdc2/cyclin B protein kinase (Arion et al. 1988; Partanen et al. 1991) and PKC (McGlynn et al. 1992b) was assayed as previously described.

In a further data set the target is T3, c-Abl (Homo sapiens, UniProt P00519).
T3 construct: The His-tagged kinase domain of c-Abl was cloned and expressed in the baculovirus/Sf9 system; His; made in house; host or cells: baculovirus/Sf9
T3 sequence (P00519 242-493 limits assumed): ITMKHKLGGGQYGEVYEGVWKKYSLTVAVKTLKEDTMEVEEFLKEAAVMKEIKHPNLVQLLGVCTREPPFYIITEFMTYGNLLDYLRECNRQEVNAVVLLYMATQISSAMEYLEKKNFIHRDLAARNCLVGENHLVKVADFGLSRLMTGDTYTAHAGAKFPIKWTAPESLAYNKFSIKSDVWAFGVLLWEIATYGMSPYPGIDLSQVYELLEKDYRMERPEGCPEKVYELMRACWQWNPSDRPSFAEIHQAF
The data set can be described thus: In vitro kinase filter binding assay, c-Abl kinase domain. It is filed as biochemical. The following applies: c-Abl tyrosine kinase. The protocol: Preparation of Enzymes and Kinase Assays. In vitro enzyme assays using EGF-R (McGlynn et al. 1992a), Abl (Geissler et al. 1992), and c-Src (Geissler et al. 1990) protein tyrosine kinases were performed in 96-well plates as a filter binding assay. Briefly, EGF-R intracellular kinase domain (EGF-R-ICD) was assayed in 20 mM Tris-HCl, pH 7.5, 10 mM MnCl2, 10 μM Na3VO4, 1 mM DTT, 0.1 μCi/assay [γ-^33P]ATP, 0.4 μM ATP, 2 μ/ml poly(Glu,Tyr 4:1) (Sigma P275), 1% DMSO, and 30 ng EGF-R-ICD in a total volume of 30 μl. […] Src kinase (60 μg/ml) was preactivated with 50 μM ATP for 10 min at room temperature, and kinase inhibition was measured in 20 mM Tris-HCl, pH 7.5, 10 mM MgCl2, 10 μM Na3VO4, 1 mM DTT, 0.1 μCi/assay (=30 μl ) [γ-^33P]ATP, 20 μM ATP, 25 μg/ml poly(Glu,Tyr 4:1), 1% DMSO, and 10 ng c-Src enzyme.
GST-fused kinase domains of Kdr, Flt-1, Flk, Tek, c-Met, and c-Kit were expressed in baculovirus and purified over glutathione-Sepharose. Kinase inhibition was measured by detecting the decrease in phosphorylation of poly(Glu,Tyr 4:1) essentially as previously described for EGF-R. Each kinase was incubated under optimized buffer conditions in 20 mM Tris-HCl, pH 7.5, 1–3 mM MnCl2, 3–10 mM MgCl2, 10 μM Na3VO4, 1 mM DTT, 0.2 μCi/[γ-^33P]ATP, 1–8 μM ATP, 3–8 μg/ml poly(Glu,Tyr 4:1), 1% DMSO in a total volume of 30 μl in the presence or absence of PKI166 for 10 min at ambient temperature. […]

T1 sequence (P00533 25-1210): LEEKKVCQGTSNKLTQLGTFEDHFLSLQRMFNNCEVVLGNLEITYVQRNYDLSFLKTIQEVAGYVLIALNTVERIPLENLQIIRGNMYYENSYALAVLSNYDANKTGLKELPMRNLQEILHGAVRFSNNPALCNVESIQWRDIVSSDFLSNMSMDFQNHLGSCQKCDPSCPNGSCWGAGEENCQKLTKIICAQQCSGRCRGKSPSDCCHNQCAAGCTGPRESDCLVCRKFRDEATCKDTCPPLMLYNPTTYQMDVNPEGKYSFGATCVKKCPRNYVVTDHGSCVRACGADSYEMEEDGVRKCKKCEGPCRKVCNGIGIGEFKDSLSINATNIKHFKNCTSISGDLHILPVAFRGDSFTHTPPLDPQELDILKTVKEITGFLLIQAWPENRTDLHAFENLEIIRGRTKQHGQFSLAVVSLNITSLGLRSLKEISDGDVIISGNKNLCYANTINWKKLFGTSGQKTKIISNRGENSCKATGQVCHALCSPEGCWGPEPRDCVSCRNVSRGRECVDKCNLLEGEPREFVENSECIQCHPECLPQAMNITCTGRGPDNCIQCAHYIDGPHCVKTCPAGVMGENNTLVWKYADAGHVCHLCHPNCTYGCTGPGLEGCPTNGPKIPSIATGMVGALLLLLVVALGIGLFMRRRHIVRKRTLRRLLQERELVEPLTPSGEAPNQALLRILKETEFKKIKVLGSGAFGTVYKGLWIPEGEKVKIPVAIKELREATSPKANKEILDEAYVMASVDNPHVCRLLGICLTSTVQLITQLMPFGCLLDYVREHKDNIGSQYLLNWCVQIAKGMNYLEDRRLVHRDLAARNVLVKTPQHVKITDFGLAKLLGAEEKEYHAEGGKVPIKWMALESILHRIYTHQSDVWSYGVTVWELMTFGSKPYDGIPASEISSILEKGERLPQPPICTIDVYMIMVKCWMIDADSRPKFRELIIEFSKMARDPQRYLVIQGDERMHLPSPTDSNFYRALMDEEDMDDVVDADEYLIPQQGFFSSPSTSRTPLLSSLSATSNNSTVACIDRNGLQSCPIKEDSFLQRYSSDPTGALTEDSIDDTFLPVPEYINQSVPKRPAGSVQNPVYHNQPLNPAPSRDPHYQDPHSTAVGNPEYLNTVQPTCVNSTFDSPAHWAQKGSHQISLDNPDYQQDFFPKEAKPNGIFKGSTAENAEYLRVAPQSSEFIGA

As to `C[C@@H](Nc1ncnc2[nH]c(-c3ccc(O)cc3)cc12)c1ccccc1` [PKI166, 4-(R)-phenethylamino-6-(hydroxyl) phenyl-7H-pyrrolo[2.3-d]-pyrimidine], the “Sustained levels of unchanged compound in plasma, time after oral administration” value in data set [1] (plasma, oral) is listed as “up to 8 h”. Also, the Cmax in data set [1] (single oral administration of 100 mg/kg, plasma, read-out: C max in plasma) was 32.8 µM; in data set [1] (single oral administration of 100 mg/kg, subcutaneous A431 tumors, read-out: C max in subcutaneous A431 tumors), 53 µM. Moreover, the t max in data set [1] (single oral administration of 100 mg/kg) was 1 h. Moreover, at EGF-R, the “Inhibition of EGF-stimulated EGF-R autophosphorylation” value is reported as “inhibited the autophosphorylation in a dose-dependent manner”. The IC50 is 327 nM against KDR and 28 nM at c-Abl.
